Each structure is given as a SMILES string.

For the first assay, the target named is ACC2 (Homo sapiens, UniProt O00763). In words: In vitro ACC2 inhibition assay (ADP-Glo). It is filed as biochemical. The settings on record: read-out: ACC2. The essentials: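 Enzyme (human ACC1 or ACC2) and compound, serially diluted 1:3 over 11 points from a 600 uM DMSO stock, were preincubated 15 min before substrate addition.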
Chain of ACC2 (O00763 whole entry, species assumed): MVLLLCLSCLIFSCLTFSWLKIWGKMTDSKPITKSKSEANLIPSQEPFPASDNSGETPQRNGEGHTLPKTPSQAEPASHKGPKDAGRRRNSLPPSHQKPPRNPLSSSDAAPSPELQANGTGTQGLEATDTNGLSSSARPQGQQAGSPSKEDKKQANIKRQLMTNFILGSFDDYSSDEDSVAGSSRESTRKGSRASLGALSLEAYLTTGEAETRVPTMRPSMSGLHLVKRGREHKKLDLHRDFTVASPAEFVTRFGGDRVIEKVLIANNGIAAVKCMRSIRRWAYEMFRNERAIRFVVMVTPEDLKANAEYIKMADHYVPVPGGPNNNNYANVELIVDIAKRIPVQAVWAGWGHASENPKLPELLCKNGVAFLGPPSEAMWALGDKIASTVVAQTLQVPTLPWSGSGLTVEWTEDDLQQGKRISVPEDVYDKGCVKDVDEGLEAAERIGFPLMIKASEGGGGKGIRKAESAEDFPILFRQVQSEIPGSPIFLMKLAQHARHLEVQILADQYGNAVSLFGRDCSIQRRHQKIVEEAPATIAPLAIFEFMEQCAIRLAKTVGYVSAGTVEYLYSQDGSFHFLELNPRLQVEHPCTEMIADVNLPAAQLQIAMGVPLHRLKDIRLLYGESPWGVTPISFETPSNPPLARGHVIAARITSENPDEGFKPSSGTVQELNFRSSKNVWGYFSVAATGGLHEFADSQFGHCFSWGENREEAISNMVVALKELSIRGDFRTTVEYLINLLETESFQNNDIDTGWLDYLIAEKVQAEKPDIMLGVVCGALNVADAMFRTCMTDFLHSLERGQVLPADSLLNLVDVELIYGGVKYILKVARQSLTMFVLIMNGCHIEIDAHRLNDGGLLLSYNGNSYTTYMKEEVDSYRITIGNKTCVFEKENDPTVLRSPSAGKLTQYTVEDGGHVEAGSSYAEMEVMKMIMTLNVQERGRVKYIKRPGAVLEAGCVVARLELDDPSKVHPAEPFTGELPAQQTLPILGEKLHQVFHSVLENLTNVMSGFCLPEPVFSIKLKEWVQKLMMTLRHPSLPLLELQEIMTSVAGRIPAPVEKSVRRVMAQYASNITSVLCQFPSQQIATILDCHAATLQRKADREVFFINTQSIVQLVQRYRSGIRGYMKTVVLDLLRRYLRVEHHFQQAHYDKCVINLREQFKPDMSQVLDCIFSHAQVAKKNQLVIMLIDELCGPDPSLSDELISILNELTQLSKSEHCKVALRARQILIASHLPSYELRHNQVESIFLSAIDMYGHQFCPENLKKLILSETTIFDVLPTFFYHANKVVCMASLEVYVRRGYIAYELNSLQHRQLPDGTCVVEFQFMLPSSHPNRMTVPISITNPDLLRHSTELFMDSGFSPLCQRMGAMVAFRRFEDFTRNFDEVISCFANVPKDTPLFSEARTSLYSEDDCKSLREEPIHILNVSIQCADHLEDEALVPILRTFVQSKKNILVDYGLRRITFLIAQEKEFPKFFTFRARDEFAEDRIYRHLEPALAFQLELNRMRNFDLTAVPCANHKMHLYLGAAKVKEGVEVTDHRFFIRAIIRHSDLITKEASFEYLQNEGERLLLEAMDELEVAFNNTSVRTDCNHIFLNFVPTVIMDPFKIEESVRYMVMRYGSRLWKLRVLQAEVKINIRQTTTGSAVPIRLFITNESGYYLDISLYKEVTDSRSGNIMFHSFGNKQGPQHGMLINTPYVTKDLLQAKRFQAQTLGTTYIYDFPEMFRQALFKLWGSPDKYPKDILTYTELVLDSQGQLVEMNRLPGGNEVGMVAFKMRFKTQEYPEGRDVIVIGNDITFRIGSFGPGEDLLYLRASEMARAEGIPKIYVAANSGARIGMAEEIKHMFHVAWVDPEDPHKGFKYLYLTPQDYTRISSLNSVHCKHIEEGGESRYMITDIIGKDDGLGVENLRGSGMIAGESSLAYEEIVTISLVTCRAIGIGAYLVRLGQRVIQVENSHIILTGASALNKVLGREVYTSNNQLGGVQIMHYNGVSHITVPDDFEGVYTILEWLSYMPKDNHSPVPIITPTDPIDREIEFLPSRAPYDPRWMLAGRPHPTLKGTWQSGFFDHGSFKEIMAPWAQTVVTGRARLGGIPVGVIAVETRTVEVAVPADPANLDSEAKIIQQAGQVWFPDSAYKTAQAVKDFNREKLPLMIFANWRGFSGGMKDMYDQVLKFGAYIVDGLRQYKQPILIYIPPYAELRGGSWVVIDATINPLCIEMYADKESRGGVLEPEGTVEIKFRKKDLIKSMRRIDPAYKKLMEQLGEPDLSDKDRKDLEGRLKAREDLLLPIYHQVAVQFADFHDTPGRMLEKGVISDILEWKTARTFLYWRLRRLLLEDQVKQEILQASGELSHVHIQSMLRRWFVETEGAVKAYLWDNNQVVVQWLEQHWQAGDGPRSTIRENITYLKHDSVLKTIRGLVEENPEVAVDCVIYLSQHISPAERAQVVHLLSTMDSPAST
For the compound `CCOC(=O)c1sc2c(c1C)c(=O)n(CC(=O)O)c(=O)n2CCc1nc2ccccc2s1` [I-84, 2-[1-[2-(1,3-benzothiazol-2-yl)ethyl]-6-(ethoxycarbonyl)-5-methyl-2,4-dioxo-1H,2H,3H,4H-thieno[2,3-d]pyrimidin-3-yl]acetic acid], the IC50 is over 50 µM.
Still for that read-out and setting: with `CCOC(=O)c1sc2c(c1C)c(=O)n(CS(C)(=O)=O)c(=O)n2CCc1ccccc1` [I-72] the figure was over 50 µM; with `CCOC(=O)c1sc2c(c1C)c(=O)n(CCO)c(=O)n2CCc1ccc(Cl)cc1` [I-17], over 50 µM.
The same measure, in the same setting: with `Cc1c(-c2ncco2)sc2c1c(=O)n(C(C)(C)C(=O)O)c(=O)n2C[C@@H](OCC(F)(F)F)c1ccccc1` [I-138, (S)-2-methyl-2-(5-methyl-6-(oxazol-2-yl)-2,4-dioxo-1-(2-phenyl-2-(2,2,2-trifluoroethoxy)ethyl)-1,2-dihydrothieno[2,3-d]pyrimidin-3(4H)-yl)propanoic acid] the figure was 5 to 20 µM.
Still for that read-out and setting: in the case of `CCOC(=O)c1sc2c(c1C)c(=O)n(C(C)C(N)=O)c(=O)n2CCc1ccccc1` (stereo not drawn) [I-69, ethyl 3-(1-carbamoylethyl)-5-methyl-2,4-dioxo-1-(2-phenylethyl)-1H,2H,3H,4H-thieno[2,3-d]pyrimidine-6-carboxylate] it was under 5 µM.
In the case of `COCc1sc2c(c1C)c(=O)n(CC(=O)O)c(=O)n2CCc1ccccc1` [I-75, 2-[6-(methoxymethyl)-5-methyl-2,4-dioxo-1-(2-phenylethyl)-1H,2H,3H,4H-thieno[2,3-d]pyrimidin-3-yl]acetic acid], the IC50 is 5 to 20 µM.
On the same count and under the same terms, in the case of `Cc1c(-c2ncco2)sc2c1c(=O)n(C(C)(C)C(=O)O)c(=O)n2C[C@H](OC[C@H](C)CO)c1ccccc1` [I-170, 2-(1-((R)-2-((R)-3-hydroxy-2-methylpropoxy)-2-phenylethyl)-5-methyl-6-(oxazol-2-yl)-2,4-dioxo-1,2-dihydrotheno[2,3-d]pyrimidin-3(4H)-yl)-2-methylpropanoic acid] it was under 1 µM; in that of `Cc1c(-c2ncco2)sc2c1c(=O)n(C(C)(C)C(=O)O)c(=O)n2C[C@H](OC1CCC(C)(C)CC1)c1ccccc1` [I-148, 2-[1-[(2R)-2-[(4,4-dimethylcyclohexyl)oxy]-2-phenylethyl]-5-methyl-6-(1,3-oxazol-2-yl)-2,4-dioxo-1H,2H,3H,4H-thieno[2,3-d]pyrimidin-3-yl]-2-methylpropanoic acid], under 5 µM; in that of `Cc1csc2c1c(=O)n(CC(=O)O)c(=O)n2CCc1ccccc1` [I-63], 20 to 50 µM.
On the same count and under the same terms, with `CCOC(=O)c1sc2c(c1C)c(=O)n(C(C)(C)C(N)=O)c(=O)n2CCc1ccccc1` [I-107, ethyl 3-(1-carbamoyl-1-methylethyl)-5-methyl-2,4-dioxo-1-(2-phenylethyl)-1H,2H,3H,4H-thieno[2,3-d]pyrimidine-6-carboxylate] the figure was under 5 µM; with `CCOC(=O)c1sc2c(c1C)c(=O)n(C(C)(C)C(=O)O)c(=O)n2CC(O)c1ccccc1` (stereo in doubt) [I-103, 2-[6-(ethoxycarbonyl)-1-[(2S)-2-hydroxy-2-phenylethyl]-5-methyl-2,4-dioxo-1H,2H,3H,4H-thieno[2,3-d]pyrimidin-3-yl]-2-methylpropanoic acid], under 1 µM.
Same read-out and setting: with `CCOC(=O)c1sc2c(c1C)c(=O)n(C(C)(C)C(=O)O)c(=O)n2C[C@@H](OC(C)(C)C)c1ccccc1` [I-128, 2-[1-[(2S)-2-(tert-butoxy)-2-phenylethyl]-6-(ethoxycarbonyl)-5-methyl-2,4-doxo-1H,2H,3H,4H-thieno[2,3-d]pyrimidin-3-yl]-2-methylpropanoic acid] the figure was 20 to 50 µM.

In another assay the target is ACC1 (Homo sapiens, UniProt Q13085). Description: In vitro ACC1 inhibition assay (ADP-Glo). It is filed as biochemical. The settings on record: read-out: ACC1. As for the experimental part:
An exemplary procedure for the in vitro ACC inhibition assay, which can be used to determine the inhibitory action of compounds of the invention toward either ACC1 or ACC2, follows. The ADP-Glo™ Kinase Assay kit from Promega was used. The ADP-Glo™ Kinase Assay is a luminescent ADP detection assay to measure enzymatic activity by quantifying the amount of ADP produced during an enzyme reaction. The assay is performed in two steps; first, after the enzyme reaction, an equal volume of ADP-Glo™ Reagent is added to terminate the reaction and deplete the remaining ATP. Second, the Kinase Detection Reagent is added to simultaneously convert ADP to ATP and allow the newly synthesized ATP to be measured using a luciferase/luciferin reaction. Luminescence can be correlated to ADP concentrations by using an ATP-to-ADP conversion curve. The detailed procedure is as follows. 50 μL of the compound being tested (600 uM in DMSO) was added to a 384-well dilution plate. The compound was diluted 1:3 in succession in DMSO for each row for 11 wells. 0.5 μL ACC2 working solution was added to 384-well white Optiplate assay plate. 0.5 μL diluted compound solution in each column from step 2 to assay plate, each row containing 2 replicates. […] The plates were incubated at room temperature for 15 minutes. 5 μL substrate working solution was added to each well to initiate reaction. […] Plates were incubated at room temperature for 60 minutes. 10 μL ADP glo reagent was added. Plates were incubated at room temperature for 40 minutes. 20 μL kinase detection reagent was added.
Data for each concentration, as well as the positive and negative controls were averaged, and the standard deviation calculated. Percent inhibition was calculated by the formula: 100× (average negative control−compound)/(average negative control−average positive control). The IC50 for each compound was calculated by fitting the data with a non-linear regression equation: Y=Bottom+(Top-Bottom)/(1+10^((Log IC50−X)*HillSlope)), where X is the log of compound concentration and Y is percent inhibition.
The compound numbers correspond to the compound numbers in Table 1.
Background: ADP-Glo turns the ADP formed in a reaction into a luminescent signal.
In the case of `COc1cc(Br)ccc1[C@H](Cn1c(=O)n(C(C)(C)C(=O)O)c(=O)c2c(C)c(-c3ncco3)sc21)OC1CCOCC1` [I-270, 2-[1-[(2R)-2-(4-bromo-2-methoxyphenyl)-2-(oxan-4-yloxy)ethyl]-5-methyl-6-(1,3-oxazol-2-yl)-2,4-dioxo-1H,2H,3H,4H-thieno[2,3-d]pyrimidin-3-yl]-2-methylpropanoic acid], the IC50 was under 5 µM.
On the same count and under the same terms, in the case of `Cc1c(-c2ncco2)sc2c1c(=O)n(C(C)(C)C(N)=O)c(=O)n2C[C@H](OC1CCOCC1)c1ccccc1Cl` [I-252, 2-[1-[(2R)-2-(2-chlorophenyl)-2-(oxan-4-yloxy)ethyl]-5-methyl-6-(1,3-oxazol-2-yl)-2,4-dioxo-1H,2H,3H,4H-thieno[2,3-d]pyrimidin-3-yl]-2-methylpropanamide] it was under 1 µM; in that of `COc1ccccc1[C@@H](O)Cn1c(=O)n(C(C)(C)C(=O)O)c(=O)c2c(C)c(-c3ncco3)sc21` [I-248, 2-[1-[(2R)-2-hydroxy-2-(2-methoxyphenyl)ethyl]-5-methyl-6-(1,3-oxazol-2-yl)-2,4-dioxo-1H,2H,3H,4H-thieno[2,3-d]pyrimidin-3-yl]-2-methylpropanoic acid], under 1 µM; in that of `COc1ccccc1[C@H](Cn1c(=O)n(C(C)(C)C(=O)O)c(=O)c2c(C)c(-c3ncco3)sc21)OC1CCC(=O)CC1` [I-276, (R)-2-(1-(2-(2-methoxyphenyl)-2-((4-oxocyclohexyl)oxy)ethyl)-5-methyl-6-(oxazol-2-yl)-2,4-dioxo-1,2-dihydrotheno[2,3-d]pyrimidin-3(4H)-yl)-2-methylpropanoic acid], under 0.1 µM.
`COc1ccccc1[C@H](Cn1c(=O)n(C(C)(C)C(=O)O)c(=O)c2c(C)c(-c3ncco3)sc21)OCC1COC1` [I-269, (R)-2-(1-(2-(2-methoxyphenyl)-2-(oxetan-3-ylmethoxy)ethyl)-5-methyl-6-(oxazol-2-yl)-2,4-dioxo-1,2-dihydrothieno[2,3-d]pyrimidin-3(4H)-yl)-2-methylpropanoic acid]: the IC50 is under 5 µM.
`Cc1c(-c2ncco2)sc2c1c(=O)n(C(C)(C)C(=O)O)c(=O)n2C[C@H](OC(C)C)c1ccccc1OC(F)(F)F` [I-265, (R)-2-(1-(2-isopropoxy-2-(2-(trifluoromethoxy)phenyl)ethyl)-5-methyl-6-(oxazol-2-yl)-2,4-doxo-1,2-dihydrotheno[2,3-d]pyrimidin-3(4H)-yl)-2-methylpropanoic acid]: the IC50 is under 1 µM.
Still for that read-out and setting: with `Cc1c(-c2ncco2)sc2c1c(=O)n(C(C)(C)C(=O)N1CCC1)c(=O)n2C[C@H](OC1CCOCC1)c1ccccc1O` [I-284, 3-[1-(azetidin-1-yl)-2-methyl-1-oxopropan-2-yl]-1-[(2R)-2-(2-hydroxyphenyl)-2-(oxan-4-yloxy)ethyl]-5-methyl-6-(1,3-oxazol-2-yl)-1H,2H,3H,4H-thieno[2,3-d]pyrimidine-2,4-dione] the figure was under 0.1 µM; with `Cc1c(-c2ncco2)sc2c1c(=O)n(C(C)(C)C(=O)O)c(=O)n2C[C@H](OC1CCOCC1)c1ccccc1O` [I-273, 2-[1-[(2R)-2-(2-hydroxyphenyl)-2-(oxan-4-yloxy)ethyl]-5-methyl-6-(1,3-oxazol-2-yl)-2,4-dioxo-1H,2H,3H,4H-thieno[2,3-d]pyrimidin-3-yl]-2-methylpropanoic acid], under 0.1 µM.
Same read-out and setting: with `COc1ccccc1[C@H](Cn1c(=O)n(C(C)(C)C(=O)N2CCC2)c(=O)c2c(C)c(-c3ncco3)sc21)OCC1CCOCC1` [I-275, 3-[1-(azetidin-1-yl)-2-methyl-1-oxopropan-2-yl]-1-[(2R)-2-(2-methoxyphenyl)-2-(oxan-4-ylmethoxy)ethyl]-5-methy-6-(1,3-oxazol-2-yl)-1H,2H,3H,4H-thieno[2,3-d]pyrimidine-2,4-dione] the figure was under 0.1 µM.
The same measure, in the same setting: with `Cc1c(-c2ncco2)sc2c1c(=O)n(C(C)(C)C(N)=O)c(=O)n2C[C@H](OC1CCOCC1)c1ccccc1O` [I-283, 2-[1-[(2R)-2-(2-hydroxyphenyl)-2-(oxan-4-yloxy)ethyl]-5-methyl-6-(1,3-oxazol-2-yl)-2,4-dioxo-1H,2H,3H,4H-thieno[2,3-d]pyrimidin-3-yl]-2-methylpropanamide] the figure was under 0.1 µM; with `Cc1c(-c2ncco2)sc2c1c(=O)n(C(C)(C)C(=O)O)c(=O)n2C[C@H](OC1CCOCC1)c1ccccc1C(F)(F)F` [I-266, 2-methyl-2-[5-methyl-1-[(2R)-2-(oxan-4-yloxy)-2-[2-(trifluoromethyl)phenyl]ethyl]-6-(1,3-oxazol-2-yl)-2,4-dioxo-1H,2H,3H,4H-thieno[2,3-d]pyrimidin-3-yl]propanoic acid], under 1 µM; with `Cc1c(-c2ncco2)sc2c1c(=O)n(C(C)(C)C(=O)N1CCC1)c(=O)n2C[C@H](OC1CCOCC1)c1ccccc1Cl` [I-253, 3-[1-(azetidin-1-yl)-2-methyl-1-oxopropan-2-yl]-1-[(2R)-2-(2-chlorophenyl)-2-(oxan-4-yloxy)ethyl]-5-methyl-6-(1,3-oxazol-2-yl)-1H,2H,3H,4H-thieno[2,3-d]pyrimidine-2,4-dione], under 1 µM.

The record behind these values is patent US9453026B2, “ACC inhibitors and uses thereof” (Gilead Apollo, Inc., priority 2011, dated 2016).
